Laboratory results as given in patent US9040707B2, “Bicyclic thiazoles as allosteric modulators of mGluR5 receptors” (Janssen Pharmaceutica NV, priority 2009, dated 2015).
Where a name gives a salt, the structure may show the parent alone.

Tests used:
human mGluR5a receptor = biological target: T1, human mGluR5a receptor (Homo sapiens, UniProt P41594); assay: Functional Assay 2: Ca2+ mobilization, HEK cells with human mGluR5a receptor (H10H cell line); assay type: cell-based; settings: for EC50 / Emax: H10H cell line; for EC50: glutamate EC20; for Emax: HEK293, maximum average response at a single concentration, relative to glutamate ECMax
T1 construct: host or cells: HEK293A (monoclones H10H and H12H)
T1 sequence (P41594 21-1180 isoform P41594-2 limits assumed): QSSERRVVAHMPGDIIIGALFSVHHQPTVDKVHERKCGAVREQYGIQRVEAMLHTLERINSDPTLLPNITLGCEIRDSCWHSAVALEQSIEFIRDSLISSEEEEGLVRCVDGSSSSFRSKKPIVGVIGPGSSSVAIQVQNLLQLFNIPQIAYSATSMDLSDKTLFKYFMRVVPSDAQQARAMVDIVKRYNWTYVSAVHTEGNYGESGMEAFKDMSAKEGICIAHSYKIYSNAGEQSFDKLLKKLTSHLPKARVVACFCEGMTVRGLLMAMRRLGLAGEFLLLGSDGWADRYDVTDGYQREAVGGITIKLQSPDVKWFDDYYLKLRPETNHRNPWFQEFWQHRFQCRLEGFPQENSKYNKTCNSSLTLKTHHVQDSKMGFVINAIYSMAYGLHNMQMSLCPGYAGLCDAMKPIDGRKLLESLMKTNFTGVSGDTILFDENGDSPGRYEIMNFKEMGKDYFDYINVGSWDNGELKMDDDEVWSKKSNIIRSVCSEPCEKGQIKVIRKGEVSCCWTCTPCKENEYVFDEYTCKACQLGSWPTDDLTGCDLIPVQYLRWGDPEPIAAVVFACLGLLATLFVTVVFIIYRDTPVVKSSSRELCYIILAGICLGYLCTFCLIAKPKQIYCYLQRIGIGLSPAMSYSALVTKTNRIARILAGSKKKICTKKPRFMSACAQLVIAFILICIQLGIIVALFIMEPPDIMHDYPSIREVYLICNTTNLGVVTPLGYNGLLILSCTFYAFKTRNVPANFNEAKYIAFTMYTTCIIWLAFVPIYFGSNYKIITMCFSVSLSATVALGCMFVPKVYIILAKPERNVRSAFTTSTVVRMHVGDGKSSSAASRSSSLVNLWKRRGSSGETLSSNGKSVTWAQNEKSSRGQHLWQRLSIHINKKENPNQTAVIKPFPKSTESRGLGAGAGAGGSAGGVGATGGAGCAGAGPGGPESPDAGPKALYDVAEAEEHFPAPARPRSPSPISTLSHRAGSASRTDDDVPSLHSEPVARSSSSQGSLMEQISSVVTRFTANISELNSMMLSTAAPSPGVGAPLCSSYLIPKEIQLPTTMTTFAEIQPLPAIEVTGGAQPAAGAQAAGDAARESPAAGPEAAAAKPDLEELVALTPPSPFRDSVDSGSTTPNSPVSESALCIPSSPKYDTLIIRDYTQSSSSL
Procedure: Human mGluR5a cDNA in pCMV6-XL6 mammalian expression plasmid was purchased from OriGene Technologies, Inc. (catalogue number SC326357) and subcloned into pcDNA3.1(−). […] Monoclones were named for the species (“H” for human) plus the location on the plate (e.g. “10H”).
The following day, the growth medium was removed and the cells were washed with assay buffer containing 1× Hank's balanced salt solution (Invitrogen, Carlsbad, Calif.), 20 mM HEPES, 2.5 mM probenecid, pH 7.4 and left with 20 μL of this reagent. Following this step, the cells were loaded with calcium indicator dye, fluo-4 AM, to a final concentration of 2 μM and incubated for 40-45 min at 37° C. The dye solution was removed and replaced with assay buffer. Cell plates were held for 10-15 min at room temperature and were then loaded into the Functional Drug Screening System 6000 (FDSS 6000, Hamamatsu, Japan).
After establishment of a fluorescence baseline for about 3 seconds, the compounds of the present invention were added to the cells, and the response in cells was measured. 2.3 minutes later an EC20 concentration of the mGluR5 receptor agonist glutamate was added to the cells, and the response of the cells was measured for about 1.7 minutes. All test compounds were dissolved and diluted to a concentration of 10 mM in 100% DMSO and then serially diluted into assay buffer for a 2× stock solution in 0.6% DMSO; stock compounds were then added to the assay for a final DMSO concentration of 0.3% after the first addition to the assay well. Calcium fluorescence measures were recorded as fold over basal fluorescence; raw data was then normalized to the maximal response to glutamate.
The concentration-response curves of compounds of the present invention, obtained in the presence of EC20 of mGluR5 receptor agonist glutamate to determine positive allosteric modulation, were generated using Microsoft Excel with IDBS XLfit add-ins. The raw data file containing all time points was used as the data source in the analysis template. This was saved by the FDSS as a tab-delimitted text file. Data were normalized using a static ratio function (F/F0) for each measurement of the total 350 values per well divided by each well's initial value. […] This is sufficient time to capture the peak amplitude of the cellular calcium response. […] Each of the three values collected at each concentration of test compound were weighted evenly. […] These two methods are in good agreement for curves with a clear plateau at the high concentration range.

human mGluR5 receptor = biological target: T2, human mGluR5 receptor (Homo sapiens, UniProt P41594); assay: Functional Assay 1: intracellular Ca2+ mobilization, positive allosteric modulation of glutamate EC20 response; assay type: cell-based; settings: for Emax: maximum % effect relative to glutamate ECMax
T2 construct: expressed in transfected cells; host or cells: HEK-293
T2 sequence (P41594 21-1180 isoform P41594-2 limits assumed): as above
Procedure: HEK-293 cells were stable transfected with human mGluR5a cDNA in expression vector pcDNA4/TO. For Assay 1, these human mGluR5 receptor over-expressing HEK-293 cells were grown at a density of 40,000 cells/well in PDL-coated 384-well plates. The following day, cells were preloaded with the calcium-sensing dye Fluo-4 AM and various concentrations of test compound were added in the absence of exogenous glutamate to test for direct agonist activity. Shortly (2.5 min) thereafter, an EC20 equivalent of glutamate (˜0.2 μM) was added. The fluorescence signal was monitored using a Hamamatsu Functional Drug Screening System (FDSS) fluorescence plate reader following the addition of compound alone (direct agonist response) and then the further addition of an EC20 of glutamate (positive allosteric modulation response). The pEC50 was defined as the negative log of the test compound concentration which produced an increase in the glutamate EC20-mediated response that was 50% of maximum. Individual amplitudes were expressed as % effect by multiplying each amplitude by 100 and then dividing the product by the mean of the amplitudes derived from the glutamate ECMax-treated wells. Emax values reported in this application are defined as the maximum % effect obtained in a concentration-response curve.

[1] = human mGluR5 over-expressing HEK-293 cells, glutamate EC20 (~0.2 μM), updated value

| Structure (SMILES) | EC50 (human mGluR5a receptor) | Emax (human mGluR5a receptor) | further results |
| --- | --- | --- | --- |
| O=C1c2sc(OCc3ccccc3)nc2CCN1c1ccc(F)cc1 [Compound 1, 5-(4-fluorophenyl)-6,7-dihydro-2-(phenylmethoxy)-thiazolo[5,4-c]pyridin-4(5H)-one] | 309 nM | 57% | EC50 (human mGluR5 receptor; [1]): 1.29 µM; Emax (human mGluR5 receptor): 64%; EC50 (human mGluR5 receptor; original value, which was updated as compound was further tested): 0.851 µM |
| O=C1NCCc2nc(COc3ccccc3)sc21 [Compound 2, 6,7-dihydro-2-(phenoxymethyl)-thiazolo[5,4-c]pyridin-4(5H)-one] | > 10000 nM | 84% | melting point: 170.5 °C |
| O=C1c2sc(COc3ccccc3)nc2CCN1CC1CCOCC1 [Compound 3, 6,7-dihydro-2-(phenoxymethyl)-5-[(tetrahydro-2H-pyran-4-yl)methyl]-thiazolo[5,4-c]pyridin-4(5H)-one] | 2290 nM | 78% |  |
| COCCN1CCc2nc(COc3ccccc3)sc2C1=O [Compound 4, 6,7-dihydro-5-(2-methoxyethyl)-2-(phenoxymethyl)-thiazolo[5,4-c]pyridin-4(5H)-one] | > 10000 nM | 69% |  |
| Cc1ccc(N2CCc3nc(COc4ccccc4)sc3C2=O)nc1 [Compound 5, 6,7-dihydro-5-(5-methyl-2-pyridinyl)-2-(phenoxymethyl)-thiazolo[5,4-c]pyridin-4(5H)-one] | 1200 nM | 84.5% |  |
| O=C1c2sc(COc3ccc(F)cc3)nc2CCN1c1ccc(F)cc1 [Compound 6, 2-[(4-fluorophenoxy)methyl]-5-(4-fluorophenyl)-6,7-dihydro-thiazolo[5,4-c]pyridin-4(5H)-one] | 457 nM | 75% | melting point: > 280 °C |
| CN1CCc2nc(OCc3ccccc3)sc2C1=O [Compound 24, 6,7-dihydro-5-methyl-2-(phenylmethoxy)-thiazolo[5,4-c]pyridin-4(5H)-one] | 3470 nM | 45% |  |
| C[C@@H](N1CCc2nc(COc3ccc(F)cc3)sc2C1=O)C(C)(C)C [Compound 34, 2-[(4-fluorophenoxy)methyl]-6,7-dihydro-5-[(1R)-1,2,2-trimethylpropyl]-thiazolo[5,4-c]pyridin-4(5H)-one] | 1480 nM | 48% |  |
| COc1ccccc1N1CCc2nc(COc3ccccc3F)sc2C1=O [Compound 36, 2-[(2-fluorophenoxy)methyl]-6,7-dihydro-5-(2-methoxyphenyl)-thiazolo[5,4-c]pyridin-4(5H)-one] | 2000 nM | 71% |  |
| O=C1c2sc(COc3ccccc3)nc2CCN1c1ccccn1 [Compound 45, 6,7-dihydro-2-(phenoxymethyl)-5-(2-pyridinyl)-thiazolo[5,4-c]pyridin-4(5H)-one] | 832 nM | 85% |  |
| O=C1c2sc(COc3ccccc3)nc2CCN1c1ccc(F)cn1 [Compound 47, 5-(5-fluoro-2-pyridinyl)-6,7-dihydro-2-(phenoxymethyl)-thiazolo[5,4-c]pyridin-4(5H)-one] | 251 nM | 82% |  |
| O=C1c2sc(COc3ccccc3)nc2CCN1c1cccnc1 [Compound 48, 6,7-dihydro-2-(phenoxymethyl)-5-(3-pyridinyl)-thiazolo[5,4-c]pyridin-4(5H)-one] | 4680 nM | 78% |  |
| O=C1c2sc(COc3ccccc3)nc2CCN1c1ccncc1 [Compound 49, 6,7-dihydro-2-(phenoxymethyl)-5-(4-pyridinyl)-thiazolo[5,4-c]pyridin-4(5H)-one] |  |  | pEC50 (human mGluR5a receptor): 5.57 |
| O=C1c2sc(COc3ccccc3)nc2CCN1c1ncccc1F [Compound 50, 5-(3-fluoro-2-pyridinyl)-6,7-dihydro-2-(phenoxymethyl)-thiazolo[5,4-c]pyridin-4(5H)-one] | 1380 nM | 69% |  |
| Cc1ccnc(N2CCc3nc(COc4ccccc4)sc3C2=O)c1 [Compound 51, 6,7-dihydro-5-(4-methyl-2-pyridinyl)-2-(phenoxymethyl)-thiazolo[5,4-c]pyridin-4(5H)-one] | 3630 nM | 75% |  |
| Cc1cccnc1N1CCc2nc(COc3ccccc3)sc2C1=O [Compound 52, 6,7-dihydro-5-(3-methyl-2-pyridinyl)-2-(phenoxymethyl)-thiazolo[5,4-c]pyridin-4(5H)-one] | 1350 nM | 82% |  |
| O=C1c2sc(COc3ccccc3)nc2CCN1c1ccncc1F [Compound 58, 5-(3-fluoro-4-pyridinyl)-6,7-dihydro-2-(phenoxymethyl)-thiazolo[5,4-c]pyridin-4(5H)-one] | 562 nM | 71% |  |
| CC(C)N1CCc2nc(COc3ccccc3)sc2C1=O [Compound 63, 6,7-dihydro-5-(1-methylethyl)-2-(phenoxymethyl)-thiazolo[5,4-c]pyridin-4(5H)-one] | 2630 nM | 37.5% |  |
| CC(C)N1CCc2nc(COc3cccc(F)c3)sc2C1=O [Compound 64, 2-[(3-fluorophenoxy)methyl]-6,7-dihydro-5-(1-methylethyl)-thiazolo[5,4-c]pyridin-4(5H)-one] | > 30200 nM | 18% |  |
| O=C1NCCc2nc(OCc3ccccc3)sc21 [Compound 65, 6,7-dihydro-2-(phenylmethoxy)-thiazolo[5,4-c]pyridin-4(5H)-one] |  |  | EC50 (human mGluR5 receptor; [1]): > 30.2 µM; Emax (human mGluR5 receptor): 25% |
| N#Cc1cc(COc2nc3c(s2)C(=O)NCC3)ccc1F [Compound 66, 2-fluoro-5-[[(4,5,6,7-tetrahydro-4-oxothiazolo[5,4-c]pyridin-2-yl)oxy]methyl]-benzonitrile] |  |  | EC50 (human mGluR5 receptor; [1]): > 30.2 µM; Emax (human mGluR5 receptor): 24% |
| Cc1ccccc1COc1nc2c(s1)C(=O)NCC2 [Compound 67, 6,7-dihydro-2-[(2-methylphenyl)methoxy]-thiazolo[5,4-c]pyridin-4(5H)-one] | > 30200 nM | 18% |  |
| Cc1cccc(COc2nc3c(s2)C(=O)NCC3)c1 [Compound 68, 6,7-dihydro-2-[(3-methylphenyl)methoxy]-thiazolo[5,4-c]pyridin-4(5H)-one] | > 30200 nM | 20% |  |
| O=C1NCCc2nc(OCc3ccccc3F)sc21 [Compound 69, 2-[(2-fluorophenyl)methoxy]-6,7-dihydro-thiazolo[5,4-c]pyridin-4(5H)-one trifluoroacetate] |  |  | EC50 (human mGluR5 receptor; [1]): > 30.2 µM; Emax (human mGluR5 receptor): 15% |
| O=C1NCCc2nc(OCc3cccc(F)c3)sc21 [Compound 70, 2-[(3-fluorophenyl)methoxy]-6,7-dihydro-thiazolo[5,4-c]pyridin-4(5H)-one trifluoroacetate] |  |  | EC50 (human mGluR5 receptor; [1]): > 30.2 µM; Emax (human mGluR5 receptor): 15% |
| O=C1NCCc2nc(OCc3ccc(F)cc3)sc21 [Compound 71, 2-[(4-fluorophenyl)methoxy]-6,7-dihydro-thiazolo[5,4-c]pyridin-4(5H)-one trifluoroacetate] |  |  | EC50 (human mGluR5 receptor; [1]): > 30.2 µM; Emax (human mGluR5 receptor): 8% |
| Cc1ccc(COc2nc3c(s2)C(=O)NCC3)cc1 [Compound 72, 6,7-dihydro-2-[(4-methylphenyl)methoxy]-thiazolo[5,4-c]pyridin-4(5H)-one] |  |  | EC50 (human mGluR5 receptor; [1]): > 30.2 µM; Emax (human mGluR5 receptor): 10% |
| COc1cccc(COc2nc3c(s2)C(=O)N(c2ccc(F)cc2F)CC3)c1 [Compound 80, 5-(2,4-difluorophenyl)-6,7-dihydro-2-[(3-methoxyphenyl)methoxy]-thiazolo[5,4-c]pyridin-4(5H)-one] |  |  | EC50 (human mGluR5 receptor; [1]): > 30.2 µM; Emax (human mGluR5 receptor): 26% |
